The record followed here is PubChem BioAssay AID2060907 (Molecular Pharmacology Branch, DTP, NCI, 2025).

This test concerns 388556-164-R-J1-PDC complex spheroid viability. In words: Anticancer human tumor 388556-164-R-J1-PDC patient-derived colon adenocarcinoma cell line growth inhibition [RAS]. Particulars: for viability, T/C: stronger effect = lower value. From the text: RAS pathway inhibitors in Combinations in Complex Spheroids
A high-throughput screen of multi-cell type tumor spheroids was designed to identify active combinations of RAS pathway inhibitors and targeted small molecules. Complex spheroids include a stromal component modeled by human endothelial cells (HUVEC) and fibroblasts modeled by human mesenchymal stem cells (MSCs). The concentration ranges selected for each drug and investigational agent were based upon clinically achievable concentrations if the clinical Cmax of the agent was known.
Compounds. The drugs and investigational agents: abemaciclib (NSC768073), cobimetinib (NSC768068), divarasib (GDC6063, NSC841802), docetaxel (NSC628503), GDC-1971 (RLY-1971, NSC841576), gemcitabine (NSC613327), inavolisib (NSC800729), ipatasertib (NSC767898), KB-0742 (NSC834161), MRTX-1133 (NSC836407), osimertinib (NSC779217), RMC-4630 (NSC839698), RMC-6236 (NSC851965), RMC-6291 (NSC852671), Ro-3306 (NSC812927), sapanisertib (NSC764658), SN-38 (NSC673596), staurosporine (NSC755774), SY5609 (NSC837396), and tovorafenib (DAY101, NSC766906), were obtained from the National Cancer Institute (NCI) Developmental Therapeutics Program Chemical Repository. The FDA-approved anticancer drug set is available from the NCI Developmental Therapeutics Program. […] The stock solutions were prepared in dimethyl sulfoxide (DMSO, Sigma-Aldrich, St. Louis, MO, cat. D2650) at 800-fold the tested concentration and stored at -70 degrees C prior to their use. All drugs and investigational agents were tested over a range starting from a high concentration at or near the clinical Cmax and decreasing in half-log increments. If the clinical Cmax for an agent had not been determined, the highest concentration tested was 10 microM.
Cell Culture. All cells were maintained in an incubator at 37 degrees C and 5% CO2 with 95% humidity. The PDC lines were cultured according to standard operating procedures established by the NCI PDMR. All PDCs were thawed and cultured in Matrigel-coated flasks prepared with a working solution of 1X Ham's F-12 nutrient mix, without supplementation (Invitrogen, Waltham, MA, cat. 11765054), 100 U/mL penicillin-streptomycin (Invitrogen, cat. 15140122), and 2.5% Matrigel (Corning Inc., Corning, NY, cat. 354248) for the first three passages. The 362531-283-R-J2-PDC and 782815-120-R-J1-PDC lines were cultured in 6C/Colon 1B media, which includes advanced DMEM/F-12 (Thermo Fisher Scientific, cat. 12634028), 10 mM HEPES (Thermo Fisher Scientific, cat. 15630080), 1X GlutaMAX supplement (Thermo Fisher Scientific, cat. 35050061), 0.1 mg/mL primocin (InvivoGen, San Diego, CA, cat. ant-pm-2), 10% defined fetal bovine serum, heat inactivated (HyClone Laboratories Inc., Logan, UT, cat. SH30070.03HI), 50% L-WRN conditioned media (ATCC, cat. CRL-3276), 1.25 mM N-Acetyl-L-cysteine (Sigma-Aldrich, cat. A9165), 10 mM nicotinamide (Sigma-Aldrich, cat. N0636), 1X B-27 supplement (Thermo Fisher Scientific, cat. 17504044), 1X N-2 supplement (Thermo Fisher Scientific, cat. 17502048), 50 ng/mL human EGF (Thermo Fisher Scientific, cat. PHG0311), and 10 microM Y-27632 dihydrochloride (Tocris Bioscience, cat. 1254). The K12877-001-R-J1-PDC line was cultured in 6I media, which includes all 6C/Colon 1B media plus 10 ng/mL human FGF-10 (PeproTech, cat. 100-26), 1 ng/mL human FGF-2 (PeproTech, cat. 100-18B), 1 µM prostaglandin E2 (Tocris Bioscience, cat. 2296), […] hydrocortisone (Sigma-Aldrich, cat. H4001), and […] bovine insulin (Sigma-Aldrich, cat. I6634). The K86415-001-R-J1-PDC line was cultured in 6D media, which includes all 6C/Colon 1B media components minus the L-WRN conditioned media. The 485176-168-R4-J1-PDC was cultured in PANC media, which includes all 6C/Colon 1B media plus 100 ng/mL human FGF-10 (PeproTech, cat. 100-26), 500 nM SB-431542 (Selleckchem, cat. S1067), and 10 nM gastrin (Tocris Bioscience, cat. 3006). […]

Values joined by “and” are separate entries in the source; they are usually repeats but may differ in a detail not shown here. Equal values may be shown once.
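Note: spheroids exposed to compound for 7 days before readout.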
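Throughout, for viability, T/C: 100% = DMSO vehicle control luminescence.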

The IC50 is the concentration that inhibits the measured activity by half. Usually viability, T/C stands for the ratio of treated to control. In the case of `Nc1ccn(C2OC(CO)C(O)C2(F)F)c(=O)n1` (centres undefined) + C=CC(=O)N1CCN(c2nc(OCC3CCCN3C)nc3c(F)c(-c4nc(N)cc(C)c4C(F)(F)F)c(Cl)cc23)C(C)C1, the IC50 is over 1 µM (curve of first compound, second compound 0.00316 µM); over 1 µM (curve of first compound, second compound 0.01 µM); over 1 µM (curve of first compound, second compound 0.0316 µM); over 1 µM (curve of first compound, second compound 0.1 µM); over 1 µM (curve of first compound, second compound 0.316 µM); over 1 µM (curve of first compound, second compound 1 µM). In addition, the viability, T/C is, setting by setting: (second compound 0.00316 µM, first compound 0.00316 µM) 106%; (second compound 0.00316 µM, first compound 0.01 µM) 90.6%; (second compound 0.00316 µM, first compound 0.0316 µM) 82.7%; (second compound 0.00316 µM, first compound 0.1 µM) 79.4%; (second compound 0.00316 µM, first compound 0.316 µM) 60.9%; (second compound 0.00316 µM, first compound 1 µM) 75.8%. Further, the viability, T/C by setting is: (second compound 0.01 µM, first compound 0.00316 µM) 94.3%; (second compound 0.01 µM, first compound 0.01 µM) 89.6%; (second compound 0.01 µM, first compound 0.0316 µM) 76.3%; (second compound 0.01 µM, first compound 0.1 µM) 79.3%; (second compound 0.01 µM, first compound 0.316 µM) 70%; (second compound 0.01 µM, first compound 1 µM) 68.3%. Also, the viability, T/C is, setting by setting: (second compound 0.0316 µM, first compound 0.00316 µM) 104%; (second compound 0.0316 µM, first compound 0.01 µM) 87.1%; (second compound 0.0316 µM, first compound 0.0316 µM) 78.2%; (second compound 0.0316 µM, first compound 0.1 µM) 71.6%; (second compound 0.0316 µM, first compound 0.316 µM) 76.9%; (second compound 0.0316 µM, first compound 1 µM) 68.4%. Further, the viability, T/C runs as follows: (second compound 0.1 µM, first compound 0.00316 µM) 87.4%; (second compound 0.1 µM, first compound 0.01 µM) 85.3%; (second compound 0.1 µM, first compound 0.0316 µM) 74%; (second compound 0.1 µM, first compound 0.1 µM) 65.6%; (second compound 0.1 µM, first compound 0.316 µM) 73.8%; (second compound 0.1 µM, first compound 1 µM) 67.1%. Also, the viability, T/C runs as follows: (second compound 0.316 µM, first compound 0.00316 µM) 92.8%; (second compound 0.316 µM, first compound 0.01 µM) 95.9%; (second compound 0.316 µM, first compound 0.0316 µM) 75.5%; (second compound 0.316 µM, first compound 0.1 µM) 74.8%; (second compound 0.316 µM, first compound 0.316 µM) 72.1%; (second compound 0.316 µM, first compound 1 µM) 67.3%. Besides, the viability, T/C runs as follows: (second compound 1 µM, first compound 0.00316 µM) 97.2%; (second compound 1 µM, first compound 0.01 µM) 82.7%; (second compound 1 µM, first compound 0.0316 µM) 80.2%; (second compound 1 µM, first compound 0.1 µM) 76.2%; (second compound 1 µM, first compound 0.316 µM) 72%; (second compound 1 µM, first compound 1 µM) 68.9%.

Turning to `CC(C)n1nc(-c2ccc3oc(N)nc3c2)c2c(N)ncnc21`, the viability, T/C is 104% and 82.3% and 101% (2×) (compound 0.000316 µM); 86.8% and 105% (2×) and 98.4% (compound 0.00316 µM); 83% [middle of 4 runs] (compound 0.01 µM); 59.4% [middle of 4 runs] (compound 0.0316 µM); 40% (2×) and 49.2% and 51.2% (compound 0.1 µM).

`C[C@@H](NC(=O)c1ncnc(N)c1Cl)c1ncc(C(=O)Nc2cc(C(F)(F)F)c(Cl)cn2)s1`: the viability, T/C reads like this: (compound 0.0316 µM) 106% [middle of 4 runs]; (compound 0.1 µM) 112% [middle of 4 runs]; (compound 0.316 µM) 121% [middle of 4 runs]; (compound 1 µM) 118% and 115% (2×) and 132%; (compound 3.16 µM) 116% [middle of 4 runs]; (compound 10 µM) 97.4% [middle of 4 runs]. Further, the IC50 (curve of compound) is over 10 µM.
